Literature values as cited in patent publication US7935365B2, “Glycerophospholipids for the improvement of cognitive functions” (Enzymotec, Ltd., priority 2003, dated 2011).
Where two headings read alike, the source gives them in different places.

| SMILES | Improvement of the ADHD index, previously reported (Rugino and Copley (2001)) [SD] | Improvement of the ADHD index, previously reported (Alhambra et al. (1995)) |
| --- | --- | --- |
| NC(=O)C[S+]([O-])C(c1ccccc1)c1ccccc1 (centres unmarked) [modafinil] | > 2.5 | – |
| COC(=O)C(c1ccccc1)C1CCCCN1 (racemic) [methylphenidate, DL-threo-Methylphenidate] | – | exceed 80% |
